# Experimental data from PMC4052943 (BioMed Research International, 2014).
# Read-outs that look alike come from different tables or passages of the source.
# Key:
# [1] = system: Salmonella typhimurium TA102; conditions: TA 102, 500 μM alone (negative control)
# Procedure: (§1) In the preincubation experiment, test compounds and mutagen, each having a volume of 0.1 mL of varying concentrations, were preincubated at 37°C for 30 min and then 0.1 mL of 1 × 10^7 CFU/mL density of the bacterial culture was added, followed by the addition of 2.5 mL of top agar at 45°C (containing 0.5% NaCl and 0.6% agar) supplemented with 0.5 mM histidine-biotin. […] The combined solutions were vortexed and poured onto minimal glucose plates (40% glucose solution and Vogel Bonner medium). The plates were incubated at 37°C for 48 h and the numbers of histidine-independent revertants colonies were scored.
# (§2) Survival of the bacteria was routinely monitored for each experiment. Parallel controls were run with compounds alone at all concentrations to test the possible toxicity. The concentrations of the test samples for investigating the antimutagenicity were 50, 100, 200, and 500 μM. […] All the test samples and mutagens were dissolved in DMSO (final conc., 0.01%). […] Plates were set up in triplicate for each concentration and the entire experiment was repeated three times. Inhibition of mutagenicity was expressed as percentage decrease of reverse mutation and calculated as (1) Percent inhibition=[(a−b)/(a−c)]×100, where a = number of histidine revertants induced by mutagen, b = number of histidine revertants induced by mutagen in the presence of test compound, and c = number of revertants induced in negative control.
# [2] = system: Salmonella typhimurium TA100; assay: Ames antimutagenicity assay (preincubation); conditions: for inhibition at 50 µM / inhibition at 100 µM / inhibition at 250 µM / inhibition at 500 µM: Salmonella enterica, TYPHIMURIUM;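 for all read-outs here: compound and mutagen preincubated together 30 min at 37°C before bacteria added, then plates incubated 48 h at 37°C, inhibition relative to mutagen-alone revertants after subtracting the negative control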
# Procedure: as §1, §2
# [3] = system: Salmonella typhimurium TA102; assay: Ames antimutagenicity assay (preincubation); conditions: for inhibition at 50 µM / inhibition at 100 µM / inhibition at 250 µM / inhibition at 500 µM: Salmonella enterica, TYPHIMURIUM;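 for all read-outs here: compound and mutagen preincubated 30 min at 37 °C before adding bacteria, His+ revertant colonies counted after 48 h at 37 °C, inhibition relative to mutagen-alone minus negative-control revertants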
# Procedure: as §1, §2
structure (smiles),measurement,setting,value
O=C1O[C@H]2[C@@H]3OC(=O)c4cc(O)c(O)c(O)c4-c4c(O)c(O)c5oc(=O)c6c(c(O)c(O)c7oc(=O)c4c5c76)-c4c(cc(O)c(O)c4O)C(=O)OC[C@H]3OC(O)[C@@H]2OC(=O)c2cc(O)c(O)c(O)c2-c2c1cc(O)c(O)c2O (mixture of isomers) [Punicalagin],Number of His+ revertants colonies/plate,[1]; BP tables,358.0 ± 19.9 colonies/plate
same,Number of His+ revertants colonies/plate,[1]; MMS tables,254.0 ± 14.3 colonies/plate
same,Number of His+ revertants colonies/plate,[1]; NaN3 tables,231.7 ± 24.8 colonies/plate
same,inhibition at 50 µM,"[2]; read-out: % inhibition of mutagenicity, TA 100, 50 μM + 2AF, S9",22.4%
same,inhibition at 50 µM,"[2]; read-out: % inhibition of mutagenicity, TA 100, 50 μM + BP, S9",30.6%
same,inhibition at 50 µM,"[2]; read-out: % inhibition of mutagenicity, TA 100, 50 μM + MMS, no S9",13.8%
same,inhibition at 50 µM,"[2]; read-out: % inhibition of mutagenicity, TA 100, 50 μM + NaN3, no S9",11.3%
same,inhibition at 100 µM,"[2]; read-out: % inhibition of mutagenicity, TA 100, 100 μM + 2AF, S9",43.8%
same,inhibition at 100 µM,"[2]; read-out: % inhibition of mutagenicity, TA 100, 100 μM + BP, S9",48.3%
same,inhibition at 100 µM,"[2]; read-out: % inhibition of mutagenicity, TA 100, 100 μM + MMS, no S9",30.8%
same,inhibition at 100 µM,"[2]; read-out: % inhibition of mutagenicity, TA 100, 100 μM + NaN3, no S9",33.1%
same,inhibition at 250 µM,"[2]; read-out: % inhibition of mutagenicity, TA 100, 250 μM + BP, S9",64%
same,inhibition at 250 µM,"[2]; read-out: % inhibition of mutagenicity, TA 100, 250 μM + MMS, no S9",45.3%
same,inhibition at 250 µM,"[2]; read-out: % inhibition of mutagenicity, TA 100, 250 μM + NaN3, no S9",54.6%
same,inhibition at 500 µM,"[2]; read-out: % inhibition of mutagenicity, TA 100, 500 μM + 2AF, S9",83.1%
same,inhibition at 500 µM,"[2]; read-out: % inhibition of mutagenicity, TA 100, 500 μM + BP, S9",84.5%
same,inhibition at 500 µM,"[2]; read-out: % inhibition of mutagenicity, TA 100, 500 μM + MMS, no S9",66%
same,inhibition at 500 µM,"[2]; read-out: % inhibition of mutagenicity, TA 100, 500 μM + NaN3, no S9",74.3%
same,Number of His+ revertants colonies/plate,"[2]; TA 100, 50 μM + 2AF, S9",426.7 ± 28.3 colonies/plate
same,Number of His+ revertants colonies/plate,"[2]; TA 100, 50 μM + BP, S9",530.3 ± 26.4 colonies/plate
same,Number of His+ revertants colonies/plate,"[2]; TA 100, 50 μM + MMS, no S9",856.3 ± 13.1 colonies/plate
same,Number of His+ revertants colonies/plate,"[2]; TA 100, 50 μM + NaN3, no S9",342.0 ± 4.7 colonies/plate
same,Number of His+ revertants colonies/plate,"[2]; TA 100, 100 μM + 2AF, S9",358.0 ± 12.2 colonies/plate
same,Number of His+ revertants colonies/plate,"[2]; TA 100, 100 μM + BP, S9",442.7 ± 31.4 colonies/plate
same,Number of His+ revertants colonies/plate,"[2]; TA 100, 100 μM + MMS, no S9",722.0 ± 15.0 colonies/plate
same,Number of His+ revertants colonies/plate,"[2]; TA 100, 100 μM + NaN3, no S9",301.7 ± 7.8 colonies/plate
same,Number of His+ revertants colonies/plate,"[2]; TA 100, 250 μM + BP, S9",366.0 ± 20.2 colonies/plate
same,Number of His+ revertants colonies/plate,"[2]; TA 100, 250 μM + MMS, no S9",601.3 ± 12.3 colonies/plate
same,Number of His+ revertants colonies/plate,"[2]; TA 100, 250 μM + NaN3, no S9",254.3 ± 10.8 colonies/plate
same,Number of His+ revertants colonies/plate,"[2]; TA 100, 500 μM + 2AF, S9",245.0 ± 9.6 colonies/plate
same,Number of His+ revertants colonies/plate,"[2]; TA 100, 500 μM + BP, S9",270.7 ± 15.6 colonies/plate
same,Number of His+ revertants colonies/plate,"[2]; TA 100, 500 μM + MMS, no S9",451.7 ± 15.6 colonies/plate
same,Number of His+ revertants colonies/plate,"[2]; TA 100, 500 μM + NaN3, no S9",232.3 ± 9.4 colonies/plate
same,inhibition at 50 µM,"[3]; read-out: % inhibition of mutagenicity, TA 102, 50 μM + 2AF, S9",38.7%
same,inhibition at 50 µM,"[3]; read-out: % inhibition of mutagenicity, TA 102, 50 μM + BP, S9",15.8%
same,inhibition at 50 µM,"[3]; read-out: % inhibition of mutagenicity, TA 102, 50 μM + MMS, no S9",17.5%
same,inhibition at 50 µM,"[3]; read-out: % inhibition of mutagenicity, TA 102, 50 μM + NaN3, no S9",18%
same,inhibition at 100 µM,"[3]; read-out: % inhibition of mutagenicity, TA 102, 100 μM + 2AF, S9",54.8%
same,inhibition at 100 µM,"[3]; read-out: % inhibition of mutagenicity, TA 102, 100 μM + BP, S9",28%
same,inhibition at 100 µM,"[3]; read-out: % inhibition of mutagenicity, TA 102, 100 μM + MMS, no S9",30.8%
same,inhibition at 100 µM,"[3]; read-out: % inhibition of mutagenicity, TA 102, 100 μM + NaN3, no S9",17.6%
same,inhibition at 250 µM,"[3]; read-out: % inhibition of mutagenicity, TA 102, 250 μM + BP, S9",58.6%
same,inhibition at 250 µM,"[3]; read-out: % inhibition of mutagenicity, TA 102, 250 μM + MMS, no S9",50.8%
same,inhibition at 250 µM,"[3]; read-out: % inhibition of mutagenicity, TA 102, 250 μM + NaN3, no S9",42.2%
same,inhibition at 500 µM,"[3]; read-out: % inhibition of mutagenicity, TA 102, 500 μM + 2AF, S9",81.6%
same,inhibition at 500 µM,"[3]; read-out: % inhibition of mutagenicity, TA 102, 500 μM + BP, S9",76.2%
same,inhibition at 500 µM,"[3]; read-out: % inhibition of mutagenicity, TA 102, 500 μM + MMS, no S9",74.1%
same,inhibition at 500 µM,"[3]; read-out: % inhibition of mutagenicity, TA 102, 500 μM + NaN3, no S9",59.8%
same,Number of His+ revertants colonies/plate,"[3]; TA 102, 50 μM + 2AF, S9",1028.0 ± 21.8 colonies/plate
same,Number of His+ revertants colonies/plate,"[3]; TA 102, 50 μM + BP, S9",635.0 ± 23.0 colonies/plate
same,Number of His+ revertants colonies/plate,"[3]; TA 102, 50 μM + MMS, no S9",1072.0 ± 10.7 colonies/plate
same,Number of His+ revertants colonies/plate,"[3]; TA 102, 50 μM + NaN3, no S9",346.3 ± 23.5 colonies/plate
same,Number of His+ revertants colonies/plate,"[3]; TA 102, 100 μM + 2AF, S9",854.0 ± 31.6 colonies/plate
same,Number of His+ revertants colonies/plate,"[3]; TA 102, 100 μM + BP, S9",595.0 ± 28.8 colonies/plate
same,Number of His+ revertants colonies/plate,"[3]; TA 102, 100 μM + MMS, no S9",942.0 ± 16.2 colonies/plate
same,Number of His+ revertants colonies/plate,"[3]; TA 102, 100 μM + NaN3, no S9",341.0 ± 19.1 colonies/plate
same,Number of His+ revertants colonies/plate,"[3]; TA 102, 250 μM + BP, S9",496.0 ± 17.4 colonies/plate
same,Number of His+ revertants colonies/plate,"[3]; TA 102, 250 μM + MMS, no S9",738.0 ± 14.8 colonies/plate
same,Number of His+ revertants colonies/plate,"[3]; TA 102, 250 μM + NaN3, no S9",310.7 ± 16.0 colonies/plate
same,Number of His+ revertants colonies/plate,"[3]; TA 102, 500 μM + 2AF, S9",563.0 ± 29.4 colonies/plate
same,Number of His+ revertants colonies/plate,"[3]; TA 102, 500 μM + BP, S9",438.0 ± 19.5 colonies/plate
same,Number of His+ revertants colonies/plate,"[3]; TA 102, 500 μM + MMS, no S9",509.0 ± 19.7 colonies/plate
